The text below walks through data of ChEMBL document CHEMBL4825677, “Design, synthesis and biological evaluation of novel benzofuran derivatives as potent LSD1 inhibitors” (Eur J Med Chem, 2021).

Data set [1] relates to MGC-803. Kind of data set: cells. Conditions: Homo sapiens, MGC-803, 72 h.
Description: Antiproliferative activity against human MGC-803 cells assessed as reduction in cell viability incubated for 72 hrs by CCK8 assay
Data set [2] deals with THLE-2. Kind of data set: cells. Conditions: Homo sapiens, THLE-2, 72 h.
Description: Cytotoxicity against human THLE-2 cells assessed as reduction in cell viability incubated for 72 hrs by CCK8 assay
Data set [3] concerns A549. Kind of data set: cells. To be noted: Homo sapiens, A549, 72 h.
Description: Antiproliferative activity against human A549 cells assessed as reduction in cell viability incubated for 72 hrs by CCK8 assay
Data set [4] concerns NCI-H460. Kind of data set: cells. To be noted: Homo sapiens, NCI-H460, 72 h.
Description: Antiproliferative activity against human NCI-H460 cells assessed as reduction in cell viability incubated for 72 hrs by CCK8 assay
Data set [5] concerns MCF7. As to the kind of experiment: cells. Conditions: Homo sapiens, MCF7, 72 h.
Description: Antiproliferative activity against human MCF7 cells assessed as reduction in cell viability incubated for 72 hrs by CCK8 assay
Data set [6] concerns THP-1. As to the kind of experiment: cells. To be noted: Homo sapiens, THP-1, 72 h.
Description: Antiproliferative activity against human THP-1 cells assessed as reduction in cell viability incubated for 72 hrs by CCK8 assay
Data set [7] concerns MGC-803. Kind of data set: Antiproliferative activity against human MGC-803 cells assessed as inhibition of cell growth by MTT assay. It is filed as functional, cell-based. For orientation: Tetrazolium assays rely on reduction of a dye to a coloured formazan, in cell work by metabolically active cells.
The target of data set [8] is Lysine-specific histone demethylase 1A (Homo sapiens, UniProt O60341). Kind of data set: Inhibition of human recombinant LSD1 by horseradish peroxidase-coupled fluorometric assay.
A short description of data set [9]: Microsomal stability in human liver microsomes assessed as parent compound remaining after 60 mins in absence of NADPH regenerating system by LC-MS/MS analysis. It is filed as ADME, Microsome. Conditions: read-out: Stabilty. In general terms: Microsomes from liver hold many membrane-bound enzymes, among them those of drug oxidation.
Data set [10] concerns the target Cytochrome P450 2D6 (Homo sapiens, UniProt P10635). Kind of data set: Inhibition of CYP2D6 in human liver microsomes at 10 uM by LC-MS/MS analysis. It is filed as ADME.
Data set [11] deals with T1, Amine oxidase [flavin-containing] A (Homo sapiens, UniProt P21397).
T1 sequence (P21397 whole entry): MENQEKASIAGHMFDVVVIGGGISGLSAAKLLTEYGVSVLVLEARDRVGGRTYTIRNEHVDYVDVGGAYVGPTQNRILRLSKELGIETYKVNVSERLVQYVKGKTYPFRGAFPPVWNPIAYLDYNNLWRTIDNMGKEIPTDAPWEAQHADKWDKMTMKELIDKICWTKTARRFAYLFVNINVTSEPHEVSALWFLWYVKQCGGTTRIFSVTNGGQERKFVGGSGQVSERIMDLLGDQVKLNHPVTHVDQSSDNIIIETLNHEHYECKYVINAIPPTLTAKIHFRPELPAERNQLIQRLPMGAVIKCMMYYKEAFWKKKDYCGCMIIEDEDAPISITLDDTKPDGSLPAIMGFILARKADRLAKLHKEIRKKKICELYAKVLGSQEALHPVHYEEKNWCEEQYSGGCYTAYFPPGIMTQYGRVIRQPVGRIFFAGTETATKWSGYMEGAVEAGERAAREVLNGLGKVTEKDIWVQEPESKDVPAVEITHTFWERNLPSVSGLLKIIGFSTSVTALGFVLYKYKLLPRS
As to the kind of experiment: Inhibition of N-terminal FLAG-tagged human recombinant MAO-A expressed in baculovirus-infected Sf9 cells by […]. Background: Flow cytometry measures light scatter and fluorescence of single cells or particles in a stream.

Data set [12] deals with Cytochrome P450 2C19 (Homo sapiens, UniProt P33261). Kind of data set: Inhibition of CYP2C19 in human liver microsomes at 10 uM by LC-MS/MS analysis. It is filed as ADME.
A short description of data set [13]: Metabolic stability in human liver assessed as intrinsic clearance by LC-MS/MS analysis. It is filed as ADME, tissue-based. Conditions: read-out: CLH.
The target of data set [14] is Cytochrome P450 2C9 (Homo sapiens, UniProt P11712). Kind of data set: Inhibition of CYP2C9 in human liver microsomes at 10 uM by LC-MS/MS analysis. It is filed as ADME.
Data set [15] in a line: Microsomal stability in human liver microsomes assessed as parent compound remaining after 60 mins in presence of NADPH regenerating system by LC-MS/MS analysis. It is filed as ADME, Microsome. To be noted: read-out: Stabilty.
In data set [16] the target is T2, Amine oxidase [flavin-containing] B (Homo sapiens, UniProt P27338).
T2 sequence (P27338 whole entry): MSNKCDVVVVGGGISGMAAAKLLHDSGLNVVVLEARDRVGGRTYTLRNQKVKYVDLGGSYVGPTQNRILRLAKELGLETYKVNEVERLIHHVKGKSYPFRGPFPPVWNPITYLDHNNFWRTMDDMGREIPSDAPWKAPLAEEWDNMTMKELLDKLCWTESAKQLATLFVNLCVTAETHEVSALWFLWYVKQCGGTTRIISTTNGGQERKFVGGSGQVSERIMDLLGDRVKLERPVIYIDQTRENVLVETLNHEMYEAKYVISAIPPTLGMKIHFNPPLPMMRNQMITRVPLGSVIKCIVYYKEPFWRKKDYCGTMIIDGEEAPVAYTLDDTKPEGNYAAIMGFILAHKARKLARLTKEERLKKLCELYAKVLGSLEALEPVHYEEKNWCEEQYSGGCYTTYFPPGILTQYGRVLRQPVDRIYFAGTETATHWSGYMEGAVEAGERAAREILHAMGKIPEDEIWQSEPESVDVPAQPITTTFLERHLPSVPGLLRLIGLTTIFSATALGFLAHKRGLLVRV
As to the kind of experiment: Inhibition of N-terminal FLAG-tagged human recombinant MAO-B expressed in baculovirus-infected Sf9 cells by […].

Data set [17] has as its target Cytochrome P450 3A4 (Homo sapiens, UniProt P08684). As to the kind of experiment: Inhibition of CYP3A4 in human liver microsomes at 10 uM by LC-MS/MS analysis. It is filed as ADME.
Data set [18] is described as follows: Metabolic stability in human liver microsomes assessed as half-life by LC-MS/MS analysis. It is filed as ADME, Microsome.
Data set [19] has as its target T3, Cytochrome P450 1A2 (Homo sapiens, UniProt P05177).
T3 sequence (P05177 whole entry): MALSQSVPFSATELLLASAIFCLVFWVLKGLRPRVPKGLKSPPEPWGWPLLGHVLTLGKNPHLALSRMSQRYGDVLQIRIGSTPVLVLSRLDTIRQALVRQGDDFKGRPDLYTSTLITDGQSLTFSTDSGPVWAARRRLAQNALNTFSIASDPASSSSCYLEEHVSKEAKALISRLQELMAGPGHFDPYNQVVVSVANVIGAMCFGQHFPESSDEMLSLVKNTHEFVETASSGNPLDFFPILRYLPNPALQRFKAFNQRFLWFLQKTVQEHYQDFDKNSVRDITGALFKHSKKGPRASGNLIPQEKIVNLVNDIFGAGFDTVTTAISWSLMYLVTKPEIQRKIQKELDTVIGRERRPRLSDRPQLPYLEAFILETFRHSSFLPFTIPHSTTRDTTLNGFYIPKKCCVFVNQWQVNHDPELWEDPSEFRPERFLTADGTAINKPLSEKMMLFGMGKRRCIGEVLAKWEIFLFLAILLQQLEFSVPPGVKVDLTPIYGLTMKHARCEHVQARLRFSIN
Kind of data set: Inhibition of CYP1A2 in human liver microsomes at 10 uM by LC-MS/MS analysis. It is filed as ADME.

Data set [20] in a line: Metabolic stability in human liver microsome assessed as intrinsic clearance by LC-MS/MS analysis. It is filed as ADME. To be noted: liver microsomes, read-out: CLH.
Data set [21] has as its system NCI-H460. As to the kind of experiment: Induction of apoptosis in human NCI-H460 cells assessed as early apoptotic cells at 3 uM incubated for 48 hrs by AnnexinV-FITC/propidium iodide staining based flow cytometric analysis (reference value: 2.22%). It is filed as functional.
In data set [22] the test system is NCI-H460. Kind of data set: Inhibition of cell migration in human NCI-H460 assessed as reduction in cell migration at 0.3 to 1.2 uM by wound healing assay. It is filed as functional, cell-based. Conditions: dose 0.3-1.2 µM, time 24-48 hrs, TDE = time-dependent effect.
The subject of data set [23] is NCI-H460. Kind of data set: Induction of apoptosis in human NCI-H460 cells assessed as early apoptotic cells at 1 uM incubated for 48 hrs by AnnexinV-FITC/propidium iodide staining based flow cytometric analysis (reference value: 2.22%). It is filed as functional.
Data set [24] has as its system NCI-H460. Kind of data set: Induction of apoptosis in human NCI-H460 cells assessed as late apoptotic cells at 1 uM incubated for 48 hrs by AnnexinV-FITC/propidium iodide staining based flow cytometric analysis (reference value: 1.36%). It is filed as functional.
Data set [25] deals with NCI-H460. As to the kind of experiment: Inhibition of cell migration in human NCI-H460 cells assessed as reduction in cell migration measured after 48 hrs by wound healing assay. It is filed as functional, cell-based. Conditions: dose 0.3-1.2 µM.
Data set [26] has as its system NCI-H460. Kind of data set: Induction of apoptosis in human NCI-H460 cells assessed as late apoptotic cells at 2 uM incubated for 48 hrs by AnnexinV-FITC/propidium iodide staining based flow cytometric analysis (reference value: 1.36%). It is filed as functional.
The test system of data set [27] is NCI-H460. Kind of data set: Induction of apoptosis in human NCI-H460 cells assessed as late apoptotic cells at 3 uM incubated for 48 hrs by AnnexinV-FITC/propidium iodide staining based flow cytometric analysis (reference value: 1.36%). It is filed as functional.
The test system of data set [28] is NCI-H460. As to the kind of experiment: Induction of apoptosis in human NCI-H460 cells assessed as early apoptotic cells at 2 uM incubated for 48 hrs by AnnexinV-FITC/propidium iodide staining based flow cytometric analysis (reference value: 2.22%). It is filed as functional.

Chain of Cytochrome P450 2C9 (P11712 whole entry): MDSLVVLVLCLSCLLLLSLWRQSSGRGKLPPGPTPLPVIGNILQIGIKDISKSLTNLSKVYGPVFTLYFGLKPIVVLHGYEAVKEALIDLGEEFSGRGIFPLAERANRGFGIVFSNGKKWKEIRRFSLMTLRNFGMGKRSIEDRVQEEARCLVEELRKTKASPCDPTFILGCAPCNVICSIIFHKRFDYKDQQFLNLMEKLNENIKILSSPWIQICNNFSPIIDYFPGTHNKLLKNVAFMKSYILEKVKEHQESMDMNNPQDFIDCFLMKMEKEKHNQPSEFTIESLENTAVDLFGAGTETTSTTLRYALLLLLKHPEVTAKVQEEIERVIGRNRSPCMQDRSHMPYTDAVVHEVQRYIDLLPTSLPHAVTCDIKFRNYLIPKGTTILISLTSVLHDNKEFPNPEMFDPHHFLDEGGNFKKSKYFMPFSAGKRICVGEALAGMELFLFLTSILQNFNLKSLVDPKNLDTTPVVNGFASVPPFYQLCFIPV
Chain of Cytochrome P450 2D6 (P10635 whole entry): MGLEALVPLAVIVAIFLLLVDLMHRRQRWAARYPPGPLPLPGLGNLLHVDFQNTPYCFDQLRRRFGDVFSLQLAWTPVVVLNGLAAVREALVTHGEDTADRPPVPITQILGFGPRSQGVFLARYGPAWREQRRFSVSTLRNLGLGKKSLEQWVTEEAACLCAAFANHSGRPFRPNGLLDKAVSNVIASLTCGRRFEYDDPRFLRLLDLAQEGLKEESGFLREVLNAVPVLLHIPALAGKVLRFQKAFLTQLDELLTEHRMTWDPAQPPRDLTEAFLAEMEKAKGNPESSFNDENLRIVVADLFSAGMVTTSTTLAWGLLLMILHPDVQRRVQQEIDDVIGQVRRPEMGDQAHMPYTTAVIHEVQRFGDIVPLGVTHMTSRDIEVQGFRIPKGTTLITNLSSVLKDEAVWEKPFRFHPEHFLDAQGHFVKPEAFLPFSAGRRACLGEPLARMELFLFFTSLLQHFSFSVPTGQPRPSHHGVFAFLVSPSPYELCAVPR
Chain of Cytochrome P450 3A4 (P08684 whole entry): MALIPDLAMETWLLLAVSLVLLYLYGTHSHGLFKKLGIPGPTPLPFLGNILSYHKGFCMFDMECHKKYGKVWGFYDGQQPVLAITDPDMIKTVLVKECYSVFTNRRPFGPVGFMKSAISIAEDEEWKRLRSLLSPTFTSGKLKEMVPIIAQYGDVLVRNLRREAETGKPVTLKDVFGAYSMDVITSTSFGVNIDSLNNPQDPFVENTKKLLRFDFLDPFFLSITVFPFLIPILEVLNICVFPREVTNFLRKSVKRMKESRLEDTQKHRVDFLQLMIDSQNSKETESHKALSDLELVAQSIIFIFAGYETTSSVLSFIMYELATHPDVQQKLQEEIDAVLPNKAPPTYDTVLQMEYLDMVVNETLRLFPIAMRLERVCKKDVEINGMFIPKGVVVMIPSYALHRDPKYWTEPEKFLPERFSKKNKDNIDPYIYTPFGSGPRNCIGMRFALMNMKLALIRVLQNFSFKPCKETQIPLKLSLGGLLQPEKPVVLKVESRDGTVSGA
Chain of Cytochrome P450 2C19 (P33261 whole entry): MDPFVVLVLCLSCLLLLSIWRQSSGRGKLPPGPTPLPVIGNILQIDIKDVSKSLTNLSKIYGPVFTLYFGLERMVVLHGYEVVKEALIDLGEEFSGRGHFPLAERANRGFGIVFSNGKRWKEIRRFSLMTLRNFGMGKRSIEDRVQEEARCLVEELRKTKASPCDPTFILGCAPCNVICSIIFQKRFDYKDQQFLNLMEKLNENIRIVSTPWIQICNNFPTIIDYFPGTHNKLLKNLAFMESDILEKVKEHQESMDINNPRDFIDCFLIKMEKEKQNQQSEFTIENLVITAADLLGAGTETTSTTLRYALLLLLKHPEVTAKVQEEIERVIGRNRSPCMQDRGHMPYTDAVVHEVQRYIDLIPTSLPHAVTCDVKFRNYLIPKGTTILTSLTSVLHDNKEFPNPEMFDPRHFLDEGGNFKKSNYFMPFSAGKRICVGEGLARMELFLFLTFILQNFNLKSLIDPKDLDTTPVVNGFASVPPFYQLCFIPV

Broadly, the IC50 is the concentration that inhibits the measured activity by half. `Cc1ccc(-c2cc3occ(CNCCN)c3cc2-c2ccc(C#N)cc2)cc1`: the half-maximal inhibitory concentration (IC50) is 7.55 µM in data set [1]; 3.94 µM in data set [2]; 2.45 µM in data set [3]; 1.9 µM in data set [4]; 5.72 µM in [5]; 6.68 µM in [6].
Take `O=C(O)[C@H]1O[C@@H](Oc2cc3oc(-c4ccccc4)cc(=O)c3c(O)c2O)[C@H](O)[C@@H](O)[C@@H]1O` [BAICALIN]: in data set [7], the IC50 stood at 8.78 µM.
`NC1C[C@@H]1c1ccc(-c2cccc(O)c2)cc1` (single isomer, unassigned): the IC50 in [8] was 40.5 µM.
Broadly, the half-life is the time needed for the level to fall by half in the phase considered. For the compound `Cc1ccc(-c2cc3occ(CNC4CCNC4)c3cc2-c2ccc(C#N)cc2)cc1` (stereo not drawn), the remaining at 1 h in data set [9] amounted to 56.7%; in data set [15] it was 65.2%. For the same compound, the half-maximal inhibitory concentration (IC50) in data set [1] is 5.83 µM; in [2] it was 4.76 µM; in [11], over 20 µM; in data set [3], 5.5 µM; in [4], 2.13 µM; in [5] it was 3.29 µM. The figures for the half-inhibitory concentration (IC50) in data set [6] and in data set [16] were 6 µM and over 20 µM, respectively. The “inhibition (INH)” value in data set [10], in data set [12], in [14], in [17] and in [19] was “Active” in each case. Also, in [13], the CLint scaled came to 13.2 mL/min/kg. Moreover, the half-life in data set [18] was 1.58 h. In data set [20], the microsomal CLint is 14.6 µL/min/mg.
On to `Cc1ccc(-c2cc3occ(CNC4CCC(N)CC4)c3cc2-c2ccc(C#N)cc2)cc1` (stereo not drawn), for which the 50% inhibitory concentration (IC50) in data set [1] stood at 6.27 µM; in data set [2] it was 1.41 µM; in [3] it was 6.33 µM; in data set [4] it was 1.58 µM; in data set [5] it was 4.31 µM; in [6], 7.06 µM.
Consider `Cc1ccc(-c2ncc(OCC3CCNCC3)cc2-c2ccc(C#N)cc2)cc1`, for which the Activity was found to be 1.6% in data set [21]; 1.49% in [23]; 1.12% in [24]; 0.9% in data set [26]; 1.21% in [27]; 1.29% in data set [28]. Moreover, the remaining at 1 h in data set [9] came to 88.6%; in [15], 67.5%. Moreover, the IC50 in [1] is 12.4 µM; in data set [2], 7.83 µM; in data set [3], 9.73 µM; in data set [5] it was 16.9 µM; in data set [6] it was 34 µM. For the same compound, the inhibition entry in data set [22] was “Tde”; in [25], “Dose-Dependent Effect”. The “inhibition (INH)” value in [10], in data set [12], in [14], in data set [17] and in data set [19] was “Active” each time. Also, the CLint scaled in data set [13] came to 11.7 mL/min/kg. The half-life in data set [18] is 1.78 h. The microsomal CLint in data set [20] worked out at 13 µL/min/mg.
In the case of `CNCCCN(C)Cc1coc2cc(-c3ccc(C)cc3)c(-c3ccc(C#N)cc3)cc12`, the remaining at 1 h was determined as 55.8% in data set [9] and 7.9% in data set [15]. For the same compound, the concentration for half-maximal inhibition (IC50) was 6.47 µM in [1]; 4.2 µM in [2]; over 20 µM in data set [11]; 4.08 µM in [3]; 1.87 µM in [4]; 3.36 µM in data set [5]. Moreover, the IC50 is 4.87 µM in data set [6] and over 20 µM in data set [16]. In addition, the “inhibition (INH)” value in data set [10], in [12], in data set [14], in data set [17] and in [19] was “Active” in each case. Besides, the CLint scaled in data set [13] was 124 mL/min/kg. Further, in data set [18], the half-life worked out at 0.168 h. In addition, the microsomal CLint in [20] amounted to 138 µL/min/mg.
